Reference: patent US9469618B2, “Thiadiazolidinediones as GSK-3 inhibitors” (ASD THERAPEUTICS PARTNERS LLC, priority 2012, dated 2016)
Converted amounts (≈) assume the structure as drawn.

System: not listed separately
Assay: Thermodynamic solubility of TDZDs
Type: physicochemical
Settings: phosphate buffered saline, aqueous buffer, thermodynamic from solid; aqueous 0.01 M PBS pH 7.4, 2 mg/mL samples, 24 hours mixing, LC-UV
Procedure: Thermodynamic solubility was determined in duplicate from samples with a compound concentration of 2 mg/mL in aqueous 0.01 M phosphate buffered saline (PBS) pH 7.4 with a mixing period of 24 hours. Analysis and quantification was performed by LC-UV. Calibration lines were prepared for each compound from samples at of 1.0, 0.1, 0.01 and 0.001 mg/mL concentration in acetonitrile.
Molecule CCn1c(=O)sn(Cc2ccccc2)c1=O [Compound 1, 2-benzyl-4-ethyl-[1,2,4]thiadiazolidine-3,5-dione] has a solubility thermodynamic at 24 h of 617 µg/mL (≈ 2610 µM).
For O=c1sn(Cc2ccccc2)c(=O)n1CC1CCCO1 (stereo not drawn) [Compound 2, 2-benzyl-4-(tetrahydro-furan-2-ylmethyl)-[1,2,4]thiadiazolidine-3,5-dione], the solubility thermodynamic at 24 h was 1030 µg/mL (≈ 3520 µM).
Molecule CCOC(=O)Cn1c(=O)sn(C(Cc2ccccc2)C(=O)OCC)c1=O (stereo not drawn) [Compound 3] has a solubility thermodynamic at 24 h of 22 µg/mL (≈ 57.8 µM).
O=c1sn(Cc2ccccc2)c(=O)n1CCO [Compound 4, 2-benzyl-4-(2-hydroxy-ethyl)-[1,2,4]thiadiazolidine-3,5-dione] showed a solubility thermodynamic at 24 h of 1840 µg/mL (≈ 7300 µM).
O=c1sn(-c2cccc3ccccc23)c(=O)n1Cc1ccccc1 [Compound 5, reference compound] showed a solubility thermodynamic at 24 h of at most 1 µg/mL.

Target: T1, human recombinant GSK3β (N-terminal 6His-tagged recombinant enzyme with an H350L mutation) (Homo sapiens, UniProt P49841)
T1 construct: 6His (N); purchased Millipore (Billerica, Mass., USA)
T1 sequence (P49841 whole entry, stated change not applied): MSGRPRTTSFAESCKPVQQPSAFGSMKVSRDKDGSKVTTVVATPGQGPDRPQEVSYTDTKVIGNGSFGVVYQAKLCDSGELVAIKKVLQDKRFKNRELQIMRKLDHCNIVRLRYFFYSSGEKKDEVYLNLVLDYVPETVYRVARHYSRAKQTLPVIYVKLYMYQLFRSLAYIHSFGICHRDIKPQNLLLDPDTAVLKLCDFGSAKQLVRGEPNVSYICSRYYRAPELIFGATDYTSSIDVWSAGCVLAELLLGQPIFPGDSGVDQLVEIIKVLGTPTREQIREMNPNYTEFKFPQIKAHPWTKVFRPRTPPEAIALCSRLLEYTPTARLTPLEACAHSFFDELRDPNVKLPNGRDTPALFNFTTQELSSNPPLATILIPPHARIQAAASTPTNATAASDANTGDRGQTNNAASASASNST
Assay: GSK-3 assay (Z'-LYTE FRET enzymatic activity)
Type: biochemical
Settings: 2 nM enzyme, 12.5 μM ATP, 2 μM Ser/Thr 9 peptide, 60 min at room temperature; concentration in M units; read-out: GSK-3 inhibition pEC50 average (converted)
Procedure: The enzymatic activity of GSK3β was determined with a commercial system based on the Z'-LYTE® technology, available from Life Technologies (Carlsbad, Calif., USA), using human recombinant GSK3β (N-terminal 6His-tagged recombinant enzyme with an H350L mutation) from Millipore (Billerica, Mass., USA) as the enzyme source. This technology utilizes the fluorescence resonance energy transfer (“FRET”) process between fluorescein and coumarin. The assay principle is based on the differential sensitivity of phosphorylated and non-phosphorylated peptide to proteolytic cleavage, which precludes the energy transfer process between the two fluorophores attached to both sides of the cleavage site. […] The assay is performed in 384-well black plates, in a final volume of 10 μl, with 2 nM enzyme concentration in 50 mM Hepes pH 7.5, 50 mM MgCl2, 5 mM EGTA and 0.05% Brij-35, using 12.5 μM ATP and 2 μM substrate peptide. The latter is a synthetic peptide, provided by Invitrogen under the commercial name “Ser/Thr 9 peptide”, and it is based upon the sequence of a GSK3β substrate protein (glycogen synthase I) containing Ser-641. The peptide is labeled at both ends with fluorescein and coumarin. The assay is carried out in the presence of different concentrations of the tested compound, at a final 1% (v/v) DMSO concentration. After a 60 min incubation at room temperature, 5 μl of a commercial protease solution (sold by the same vendor in the assay kit) is added and a subsequent 1 h incubation at room temperature is performed, before adding 5 μl of a suitable “stop solution”, also provided by the vendor in the kit. After that, fluorescence intensity is recorded, monitoring emission at both 445 and 520 nm, upon excitation at 400 nm. An emission ratio is finally calculated, using the quotient among the emission at 445 nm divided by that at 520 nm.
The emission ratio of each tested sample is normalized to that of the control wells, so that for every compound concentration the percentage of inhibition is calculated by using the following equation:
[formula] where “S” is the emission from the wells with the tested sample, “E” is the average emission from control wells with full enzyme activity and “B” is the average emission from wells with full enzyme inhibition. Inhibition values obtained for every compound concentration are finally used to calculate the pEC50 of the tested compound, this parameter being the negative value of the logarithm of the compound concentration, in M units, causing 50% of its maximum effect (i.e., the higher the pEC50 value the higher the potency of the compound). For that purpose the data were fitted to the following equation using the nonlinear regression function of GraphPad™ Prism 5.0 (GraphPad Software Inc.): […]
With CCn1c(=O)sn(Cc2ccccc2)c1=O [Compound 1, 2-benzyl-4-ethyl-[1,2,4]thiadiazolidine-3,5-dione] the EC50 was 0.631 µM.
With O=c1sn(Cc2ccccc2)c(=O)n1CC1CCCO1 (stereo not drawn) [Compound 2, 2-benzyl-4-(tetrahydro-furan-2-ylmethyl)-[1,2,4]thiadiazolidine-3,5-dione] the EC50 was 2 µM.
Molecule CCOC(=O)Cn1c(=O)sn(C(Cc2ccccc2)C(=O)OCC)c1=O (stereo not drawn) [Compound 3] has an EC50 of 0.0251 µM.
Work on O=c1sn(Cc2ccccc2)c(=O)n1CCO [Compound 4, 2-benzyl-4-(2-hydroxy-ethyl)-[1,2,4]thiadiazolidine-3,5-dione] yielded an EC50 of 1.58 µM.
